Consider 13 compounds from PubChem BioAssay (NCI).

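Protocol summary: plate cells (96-well), add compound at 5 concentrations, incubate 48 h, interpolate endpoints linearly. Definition used: TGI = concentration required for complete inhibition of growth.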 Bounds are passed on as bounds.

Test systems include UO-31 renal; OVCAR-4 ovarian; HCT-15 colon; CCRF-CEM leukemia; COLO 205 colon; SK-OV-3 ovarian; SF-268 CNS; MOLT-4 leukemia; KM12 colon; A498 renal; MDA-MB-435; NCI/ADR-RES ovarian; T-47D breast.
Holding throughout (assay): NCI tumour cell line growth inhibition, 48 h

In the case of `CCCC(C)NC1=C(NC(C)=O)C(=O)c2ccccc2C1=O` (stereo not drawn), the TGI with UO-31 renal, with OVCAR-4 ovarian, in the test with HCT-15 colon, with CCRF-CEM leukemia, with COLO 205 colon and with SK-OV-3 ovarian was > 100 µM throughout. For the same compound, the TGI in the test with SF-268 CNS, in the test on MOLT-4 leukemia and in the test with KM12 colon was > 100 µM each time.
Turning to `Nn1c(CCCCCCCCc2nnc(COc3ccc(Cl)cc3)n2N)nnc1COc1ccc(Cl)cc1`, the TGI in the test on A498 renal, in the test with UO-31 renal, in the test with OVCAR-4 ovarian, in the test with MDA-MB-435, in the test on HCT-15 colon and with COLO 205 colon was > 100 µM throughout. Besides, the TGI in the test on NCI/ADR-RES ovarian, in the test with SK-OV-3 ovarian, in the test on SF-268 CNS, in the test with MOLT-4 leukemia and in the test with KM12 colon was > 100 µM throughout.
Regarding `Cc1ccn2c(=O)cc(-c3ccccc3)nc2c1`, the TGI in the test on T-47D breast, in the test on OVCAR-4 ovarian, in the test on HCT-15 colon, in the test with CCRF-CEM leukemia, with COLO 205 colon and in the test on NCI/ADR-RES ovarian was > 100 µM each time. Further, the TGI in the test with SK-OV-3 ovarian, in the test on SF-268 CNS, in the test with MOLT-4 leukemia and in the test on KM12 colon was > 100 µM each time.
`c1cc2nnnn2nc1N1CCCC1`: the TGI in the test on A498 renal, with UO-31 renal, in the test on OVCAR-4 ovarian, in the test with MDA-MB-435, in the test with HCT-15 colon and in the test with CCRF-CEM leukemia was > 100 µM throughout. Further, the TGI in the test on COLO 205 colon, in the test on NCI/ADR-RES ovarian, with SK-OV-3 ovarian, in the test with SF-268 CNS, with MOLT-4 leukemia and in the test with KM12 colon was > 100 µM throughout.
In the case of `Cc1cc(C2(O)C=C(C(C)(C)C)C(=O)C(C(C)(C)C)=C2)c(C)cc1C1(O)C=C(C(C)(C)C)C(=O)C(C(C)(C)C)=C1`, the TGI in the test on T-47D breast, with UO-31 renal, in the test on OVCAR-4 ovarian, with HCT-15 colon, in the test on CCRF-CEM leukemia and with COLO 205 colon was > 100 µM each time. The TGI with NCI/ADR-RES ovarian, with SK-OV-3 ovarian, in the test on SF-268 CNS, in the test with MOLT-4 leukemia and in the test with KM12 colon was > 100 µM throughout.
Regarding `NC1=NS(=O)(=O)Nc2nc(-c3ccc([N+](=O)[O-])o3)[nH]c21`, the TGI with A498 renal was > 100 µM; in the test on UO-31 renal, 36.5 µM; in the test on OVCAR-4 ovarian it was 31.3 µM; in the test on HCT-15 colon, 44.1 µM; in the test with CCRF-CEM leukemia, 16.9 µM; in the test with SF-268 CNS it was 38.7 µM. Further, the TGI with MOLT-4 leukemia was found to be 41 µM; in the test with KM12 colon, 36.1 µM.
In the case of `CC(=O)C1=C(C)NC2C=CC=CN12` (stereo not drawn), the TGI in the test with A498 renal, in the test with UO-31 renal, with OVCAR-4 ovarian, with HCT-15 colon, in the test on CCRF-CEM leukemia and in the test with COLO 205 colon was > 100 µM in each case. Moreover, the TGI in the test with SK-OV-3 ovarian, in the test with SF-268 CNS, in the test with MOLT-4 leukemia and in the test on KM12 colon was > 100 µM in each case.
`Nc1ccc(N=Nc2ccccc2)cc1`: the TGI in the test with A498 renal, with UO-31 renal, with OVCAR-4 ovarian, in the test with MDA-MB-435, with HCT-15 colon and with CCRF-CEM leukemia was > 100 µM each time. For the same compound, the TGI in the test on COLO 205 colon, with NCI/ADR-RES ovarian, with SK-OV-3 ovarian, with MOLT-4 leukemia and in the test on KM12 colon was > 100 µM in each case.
Regarding `NCCN=C(Nc1ccccc1)Nc1ccccc1`, the TGI in the test with UO-31 renal, in the test with OVCAR-4 ovarian, in the test with MDA-MB-435, in the test on HCT-15 colon, in the test on CCRF-CEM leukemia and with COLO 205 colon was > 100 µM in each case. The TGI in the test on NCI/ADR-RES ovarian, in the test on SK-OV-3 ovarian, in the test with SF-268 CNS, with MOLT-4 leukemia and in the test on KM12 colon was > 100 µM in each case.
Consider `COc1ccc(O)cc1`, for which the TGI with A498 renal was > 100 µM; in the test on UO-31 renal, > 100 µM; in the test with OVCAR-4 ovarian, > 100 µM; with HCT-15 colon, 98.4 µM; with CCRF-CEM leukemia, > 100 µM; in the test on COLO 205 colon it was > 100 µM. Further, the TGI in the test on SK-OV-3 ovarian, in the test on SF-268 CNS, with MOLT-4 leukemia and in the test on KM12 colon was > 100 µM each time.
On to `O=C1Nc2c(ccc(Cl)c2I)C1=O`, for which the TGI with UO-31 renal was found to be 32.1 µM; with OVCAR-4 ovarian, 31.6 µM; in the test with HCT-15 colon, 38.6 µM; in the test on CCRF-CEM leukemia, 60.9 µM; with COLO 205 colon, 30.8 µM; in the test on SK-OV-3 ovarian it was 48.3 µM. The TGI with SF-268 CNS worked out at 39.4 µM; with MOLT-4 leukemia, 40.1 µM; in the test with KM12 colon it was 65.6 µM.
Take `NC1=NS(=O)(=O)Nc2nc(-c3ccc(Cl)cc3)c(-c3ccc(Cl)cc3)nc21`: the TGI in the test on UO-31 renal, in the test with OVCAR-4 ovarian, with CCRF-CEM leukemia, in the test on COLO 205 colon, with SF-268 CNS and in the test on MOLT-4 leukemia was > 100 µM throughout. Also, the TGI in the test with KM12 colon was > 100 µM.
`CCCCCCCCCCCCCCCCCC(=O)O[C@H](COC(=O)CCCCCCCCCCC)COC(=O)CCCCCCCCCCCCCCC`: the TGI in the test with A498 renal, in the test on UO-31 renal, in the test on OVCAR-4 ovarian, in the test with HCT-15 colon, with CCRF-CEM leukemia and in the test on COLO 205 colon was > 100 µM in each case. Also, the TGI in the test on SK-OV-3 ovarian, in the test on SF-268 CNS and in the test on MOLT-4 leukemia was > 100 µM throughout.
